Test results published in US9549560B2, “Pesticidal compositions and related methods” (DOW AGROSCIENCES LLC, priority 2013, dated 2017).

Columns and labels:
[1] = tested on: Green Peach Aphid (Myzus persicae); test: Bioassay for Green Peach Aphid (GPA) (MYZUPE), foliar spray on cabbage seedlings; assay type: in vivo; conditions: 72 h, 200 ppm foliar spray, graded after three days, Abbott corrected % control, read-out: % Control (or Mortality) rating, GPA
Experimental: Cabbage seedlings grown in 3-inch pots, with 2-3 small (3-5 cm) true leaves, were used as test substrate. The seedlings were infested with 20-50 GPA (wingless adult and nymph stages) one day prior to chemical application. Four pots with individual seedlings were used for each treatment. Test compounds (2 mg) were dissolved in 2 mL of acetone/methanol (1:1) solvent, forming stock solutions of 1000 ppm test compound. The stock solutions were diluted 5× with 0.025% Tween 20 in H2O to obtain the solution at 200 ppm test compound. A hand-held aspirator-type sprayer was used for spraying a solution to both sides of […] leaves until runoff. Reference plants (solvent check) were sprayed with the diluent only containing 20% by volume of acetone/methanol (1:1) solvent. Treated plants were held in a holding room for three days at approximately 25° C. and ambient relative humidity (RH) prior to grading. Evaluation was conducted by counting the number of live aphids per plant under a microscope. Percent control was measured by using Abbott's correction formula (W. S. Abbott, “A Method of Computing the Effectiveness of an Insecticide,” J. Econ. Entomol. 18 (1925), pp. 265-267) as follows. Corrected % Control=100*(X−Y)/X
X=No. of live aphids on solvent check plants and
Y=No. of live aphids on treated plants
(§1) Biological Data for Green Peach Aphid (GPA) (MYZUPE) and Sweetpotato Whitefly-crawler (WF) (BEMITA)” (See Table Section).

[2] = tested on: Sweetpotato Whitefly-Crawler (Bemisia tabaci); test: Insecticidal test for Sweetpotato Whitefly-Crawler (WF) (BEMITA) in foliar spray assay on cotton plants; assay type: in vivo; conditions: 216 h, 200 ppm foliar spray, graded after 9 days, Abbott corrected % control, read-out: % Control (or Mortality) rating, WF
Experimental: Cotton plants (Gossypium hirsutum) grown in 3-inch pots, with 1 small (4-5 cm) true leaves, were used as test substrate. The plants were infested with 200-400 whitefly eggs 4-5 days prior to chemical application. Four pots with individual plants were used for each treatment. Test compounds (2 mg) were dissolved in 1 mL of acetone solvent, forming stock solutions of 2000 ppm test compound. The stock solutions were diluted 10× with 0.025% Tween 20 in H2O (diluents) to obtain the solution at 200 ppm test compound. A hand-held aspirator-type sprayer was used for spraying a solution to both sides of cotton leaves until runoff. Reference plants (solvent check) were sprayed with the diluent only containing 10% by volume of acetone solvent. Treated plants were held in a holding room for 9 days at approximately 25° C. and ambient relative humidity (RH) prior to grading. Evaluation was conducted by counting the number of live 3-4 nymph stage per plant under a microscope. Percent control was measured by using Abbott's correction formula (W. S. Abbott, “A Method of Computing the Effectiveness of an Insecticide,” J. Econ. Entomol. 18 (1925), pp. 265-267) as follows. Corrected % Control=100*(X−Y)/X
X=No. of live nymphs on solvent check plants and
Y=No. of live nymphs on treated plants.
as §1

| SMILES | mortality at 200 ppm [1] [%] | mortality at 200 ppm [2] [%] |
| --- | --- | --- |
| CCN(C(=O)CC[S+]([O-])CCC(F)(F)F)c1cn(-c2cc(F)c[n+]([O-])c2)nc1Cl (stereo not drawn) [Compound P37, 3-(3-Chloro-4-(N-ethyl-3-((3,3,3-trilluoropropyl)sulfinyl)propanamido)-1H-pyrazol-1-yl)-5-fluoropyridine 1-oxide] | 80 to 100 | 80 to 100 |
| CCN(C(=O)CCSCC1CC1(F)F)c1cn(-c2ccc[n+]([O-])c2)nc1Cl (stereo not drawn) [Compound P48, 3-(3-Chloro-4-(3-(((2,2-difluorocyclopropyl)methyl)thio)-N-ethylpropanamido)-1H-pyrazol-1-yl)pyridine 1-oxide] | 80 to 100 | 80 to 100 |
| CCN(C(=O)CC[S+]([O-])CC1CC1(F)F)c1cn(-c2ccc[n+]([O-])c2)nc1Cl (stereo not drawn) [Compound P49, 3-(3-Chloro-4-(3-(((2,2-difluorocyclopropyl)methyl)sulfinyl)-N-ethylpropanamido)-1H-pyrazol-1-yl)pyridine 1-oxide] | 80 to 100 | 80 to 100 |
| CCN(C(=O)CCSCC(F)(F)F)c1cn(-c2ccc[n+]([O-])c2)nc1Cl [Compound P50, 3-(3-chloro-4-(N-ethyl-3-((2,2,2-trifluoroethyl)thio)propanamido)-1H-pyrazol-1-yl)pyridine 1-oxide] | 80 to 100 | 80 to 100 |
| CCN(C(=O)CCSCCCC(F)(F)F)c1cn(-c2ccc[n+]([O-])c2)nc1Cl [Compound P53, 3-(3-Chloro-4-(N-ethyl-3-((4,4,4-trifluorobutyl)thio)propanamido)-1H-pyrazol-1-yl)pyridine 1-oxide] | 80 to 100 | 80 to 100 |
| CCN(C(=O)CC[S+]([O-])CCCC(F)(F)F)c1cn(-c2ccc[n+]([O-])c2)nc1Cl (stereo not drawn) [Compound P54, 3-(3-Chloro-4-(N-ethyl-3-((4,4,4-trilluorobutyl)sulfinyl)propanamido)-1H-pyrazol-1-yl)pyridine 1-oxide] | 80 to 100 | 80 to 100 |
| CN(C(=O)CCSCC1CC1(F)F)c1cn(-c2ccc[n+]([O-])c2)nc1Cl (stereo not drawn) [Compound P56, 3-(3-Chloro-4-(3-(((2,2-difluorocyclopropyl)methyl)thio)-N-methylpropanamido)-1H-pyrazol-1-yl)pyridine 1-oxide] | 80 to 100 | 80 to 100 |
| CN(C(=O)CC[S+]([O-])CC1CC1(F)F)c1cn(-c2ccc[n+]([O-])c2)nc1Cl (stereo not drawn) [Compound P57, 3-(3-Chloro-4-(3-(((2,2-difluorocyclopropyl)methyl)sulfinyl)-N-methylpropanamido)-1H-pyrazol-1-yl)pyridine 1-oxide] | 80 to 100 | 80 to 100 |
| CN(C(=O)CCSCCCC(F)(F)F)c1cn(-c2ccc[n+]([O-])c2)nc1Cl [Compound P62, 3-(3-Chloro-4-(N-methyl-3-((4,4,4-trifluorobutyl)thio)propanamido)-1H-pyrazol-1-yl)pyridine 1-oxide] | 80 to 100 | 80 to 100 |
| CN(C(=O)CC[S+]([O-])CCCC(F)(F)F)c1cn(-c2ccc[n+]([O-])c2)nc1Cl (stereo not drawn) [Compound P63, 3-(3-Chloro-4-(N-methyl-3-((4,4,4-trifluorobutyl)sulfinyl)propanamido)-1H-pyrazol-1-yl)pyridine 1-oxide] | 80 to 100 | 80 to 100 |
| C#CCN(C(=O)CCSCC1CC1(F)F)c1cn(-c2ccc[n+]([O-])c2)nc1Cl (stereo not drawn) [Compound P65, 3-(3-Chloro-4-(3-(((2,2-difluorocyclopropyl)methyl)thio)-N-(prop-2-yn-1-yl)propanamido)-1H-pyrazol-1-yl)pyridine 1-oxide] | 80 to 100 | 80 to 100 |
| C#CCN(C(=O)CC[S+]([O-])CC1CC1(F)F)c1cn(-c2ccc[n+]([O-])c2)nc1Cl (stereo not drawn) [Compound P66, 3-(3-Chloro-4-(3-(((2,2-difluorocyclopropyl)methyl)sulfinyl)-N-(prop-2-yn-1-yl)propanamido)-1H-pyrazol-1-yl)pyridine 1-oxide] | 80 to 100 | 80 to 100 |
| C#CCN(C(=O)CCSCCCC(F)(F)F)c1cn(-c2ccc[n+]([O-])c2)nc1Cl [Compound P71, 3-(3-Chloro-4-(N-(prop-2-yn-1-yl)-3-((4,4,4-trifluorobutyl)thio)propanamido)-1H-pyrazol-1-yl)pyridine 1-oxide] | 80 to 100 | 80 to 100 |
| C#CCN(C(=O)CC[S+]([O-])CCCC(F)(F)F)c1cn(-c2ccc[n+]([O-])c2)nc1Cl (stereo not drawn) [Compound P72, 3-(3-Chloro-4-(N-(prop-2-yn-1-yl)-3-((4,4,4-trifluorobutyl)sulfinyl)propanamido)-1H-pyrazol-1-yl)pyridine 1-oxide] | 80 to 100 | 80 to 100 |
| CCN(C(=O)CCSCC1CC1(F)F)c1cn(-c2ccc[n+]([O-])c2)nc1C (stereo not drawn) [Compound P74, 3-(4-(3-(((2,2-Difluorocyclopropyl)methyl)thio)-N-ethylpropanamido)-3-methyl-1H-pyrazol-1-yl)pyridine 1-oxide] | 80 to 100 | 80 to 100 |
| CCN(C(=O)CC[S+]([O-])CC1CC1(F)F)c1cn(-c2ccc[n+]([O-])c2)nc1C (stereo not drawn) [Compound P75, 3-(4-(3-(((2,2-Difluorocyclopropyl)methyl)sulfinyl)-N-ethylpropan-amido)-3-methyl-1H-pyrazol-1-yl)pyridine 1-oxide] | 80 to 100 | 80 to 100 |
| CCN(C(=O)CCSCCCC(F)(F)F)c1cn(-c2ccc[n+]([O-])c2)nc1C [Compound P80, 3-(4-(N-Ethyl-3-((4,4,4-trifluorobutyl)thio)propanamido)-3-methyl-1H-pyrazol-1-yl)pyridine 1-oxide] | 80 to 100 | 80 to 100 |
| CCN(C(=O)CC[S+]([O-])CCCC(F)(F)F)c1cn(-c2ccc[n+]([O-])c2)nc1C (stereo not drawn) [Compound P81, 3-(4-(N-Ethyl-3-((4,4,4-trilluorobutyl)sulfinyl)propanamido)-3-methyl-1H-pyrazol-1-yl)pyridine 1-oxide] | 80 to 100 | 80 to 100 |
| CCN(C(=O)CCSCC1CC1(F)F)c1cn(-c2cc(F)c[n+]([O-])c2)nc1Cl (stereo not drawn) [Compound P92, 3-(3-Chloro-4-(3-(((2,2-difluorocyclopropyl)methyl)thio)-N-ethylpropanamido)-1H-pyrazol-1-yl)-5-fluoropyridine 1-oxide] | 80 to 100 | 80 to 100 |
| CCN(C(=O)CC[S+]([O-])CC1CC1(F)F)c1cn(-c2cc(F)c[n+]([O-])c2)nc1Cl (stereo not drawn) [Compound P93, 3-(3-Chloro-4-(3-(((2,2-difluorocyclopropyl)methyl)sulfinyl)-N-ethylpropanamido)-1H-pyrazol-1-yl)-5-fluoropyridine 1-oxide] | 80 to 100 | 80 to 100 |
| CCN(C(=O)CCSCCCC(F)(F)F)c1cn(-c2cc(F)c[n+]([O-])c2)nc1Cl [Compound P98, 3-(3-Chloro-4-(N-ethyl-3-((4,4,4-trilluorobutyl)thio)propanamido)-1H-pyrazol-1-yl)-5-fluoropyridine 1-oxide] | 0 to 80 | 80 to 100 |
| CCN(C(=O)CC[S+]([O-])CCCC(F)(F)F)c1cn(-c2cc(F)c[n+]([O-])c2)nc1Cl (stereo not drawn) [Compound P99, 3-(3-Chloro-4-(N-ethyl-3-((4,4,4-trilluorobutyl)sulfinyl)propanamido)-1H-pyrazol-1-yl)-5-fluoropyridine 1-oxide] | 80 to 100 | 80 to 100 |
| CCN(C(=O)C(C)CSCCC(F)(F)F)c1cn(-c2ccc[n+]([O-])c2)nc1C (stereo not drawn) [FA1, 3-(4-(N-Ethyl-2-methyl-3-((3,3,3-trilluoropropyl)thio)propanamido)-3-methyl-1H-pyrazol-1-yl)pyridine 1-oxide] | 80 to 100 | 80 to 100 |
| CCN(C(=O)C(C)CSCCC(F)(F)F)c1cn(-c2cc(F)c[n+]([O-])c2)nc1Cl (stereo not drawn) [FA2, 3-(3-Chloro-4-(N-ethyl-2-methyl-3-((3,3,3-trifluoropropyl)thio)propanamido)-1H-pyrazol-1-yl)-5-fluoropyridine 1-oxide] | 80 to 100 | 80 to 100 |
